Key:
sperm = settings: cited from earlier work
mouse sperm = settings: cited from earlier work
human sperm [1] = test: Sperm motility analysis (CASA) of human sperm after ionophore and/or temperature treatment; type: cell-based; settings: 0.5 μM for 2 min before incubation at 40° C. for 30 min; FIG. 2A
Description: Sperm Motility Analysis: Aliquots of 9.7 μl of sperm suspensions were placed on slides under 18 mm×18 mm coverslips, obtaining a preparation depth of 30 μm, and maintained at 37° C. using a temperature-controlled stage. Sperm motility parameters were evaluated using the Sperm Class Analyzer® system (SCA v.6.2.0.1., Microptic SL, Barcelona, Spain), acquiring 60 frames per second. At least 5 microscopic fields and 300 sperm were analyzed. The following parameters were assessed: curvilinear velocity (VCL, μm/s), straight line velocity (VSL, μm/s), average path velocity (VAP, μm/s), linearity ([…]), straightness (STR×100, %), wobble (WOB: VAP/VCL×100, a measure of sperm head side to side movement, %), amplitude of lateral head displacement (ALH, μm) and beat cross frequency (BCF, Hz). Sperm motility was measured and classified as follows: rapid progressive (VCL≥35 μm/s; STR≥80%), medium progressive (VCL≥15 μm/s; STR≥80%), in situ (VCL<15 μm/s; VAP≥5 μm/s) and immotile (VAP<5 μm/s). Percentages of total (rapid progressive+medium progressive+in situ) and progressive (rapid+medium progressive) motility were recorded. Drifting was set in 25 μm/s. Sperm were considered hyperactivated when presenting VCL≥150 μm/s, LIN<50% and ALH≥3.5 μm.
Semen samples from healthy men were processed by density gradient centrifugation as stated in Example 1. […]

human sperm [2] = settings: high-concentration ionophore treatment and removal; cited from earlier work

CNc1ccc2oc(C[C@H]3O[C@@]4(CC[C@H]3C)O[C@H]([C@H](C)C(=O)c3ccc[nH]3)[C@H](C)C[C@H]4C)nc2c1C(=O)O [A23187]
sperm HA (sperm; 0.5 and 1 μM): provoked sperm HA without immobilization | sperm motility (sperm; 5-10 μM, in a few minutes): immobilized sperm | intracellular Ca2+ concentrations (sperm; 5-10 μM): substantially elevated | hyperactivation after removal of the ionophore (mouse sperm; 10-20 μM for 10 min, then removal, Tateno et al): acquires HA | sperm motility (mouse sperm; 10-20 μM for 10 min, Tateno et al): immobilizes | fertility of sperm from CatSper1−/−, Slo3−/− and Adcy10−/− knock-out lines (mouse sperm; 10-20 μM for 10 min with posterior removal, Navarrete et al (2016)): overcomes infertility | levels of HA compared to control (human sperm [1]): higher levels of HA | motility after ionophore treatment (human sperm [2]): does not regain motility
